Target: T1, IRAK4 (Homo sapiens, UniProt Q9NWZ3)
T1 sequence (Q9NWZ3 1-460): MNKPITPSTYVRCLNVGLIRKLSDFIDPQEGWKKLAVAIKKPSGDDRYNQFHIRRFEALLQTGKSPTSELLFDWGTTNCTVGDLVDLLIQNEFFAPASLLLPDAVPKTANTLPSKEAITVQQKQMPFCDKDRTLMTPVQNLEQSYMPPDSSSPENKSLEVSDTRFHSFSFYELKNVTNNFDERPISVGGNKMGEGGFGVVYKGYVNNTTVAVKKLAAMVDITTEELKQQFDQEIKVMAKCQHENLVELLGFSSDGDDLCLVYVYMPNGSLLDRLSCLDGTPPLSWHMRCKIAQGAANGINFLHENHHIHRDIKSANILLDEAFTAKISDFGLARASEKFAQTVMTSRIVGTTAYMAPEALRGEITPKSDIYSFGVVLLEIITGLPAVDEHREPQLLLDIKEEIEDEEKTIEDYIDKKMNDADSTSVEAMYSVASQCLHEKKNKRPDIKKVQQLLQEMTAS
Test: 2-hour 1 mM ATP IRAK4 Biochemical assay (as above, but with 100 pM IRAK4 and 1 mM ATP)
Settings: IRAK4 MSD BIOCHEMICAL (1 mM ATP) IC50 (μM), 100 pM IRAK4, 2 hours
How it was run: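 MSD electrochemiluminescence read-out: biotinylated peptide product bound to streptavidin plates, probed with anti-P-Thr rabbit antibody and Sulfo-Tag goat anti-rabbit. Kinase reaction used 1 mM ATP and 100 pM IRAK4 over 2 hours before EDTA quench.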

| Structure (SMILES) | IC50 [µM] |
| --- | --- |
| COc1c(F)cccc1C(=O)Nc1cn2cc(C34CCC(C)(C3)OC4)nc2c(OC)n1 (stereo not drawn) [Example 466, 3-fluoro-2-methoxy-N-(8-methoxy-2-(1-methyl-2-oxabicyclo[2.2.1]heptan-4-yl)imidazo[1,2-a]pyrazin-6-yl)benzamide 2,2,2-trifluoroacetate] | 0.059 |
| COc1c(Cl)c(NC(=O)c2cccc(C(F)F)n2)cn2cc(C3CCOCC3)nc12 [Example 331, N-(7-chloro-8-methoxy-2-(tetrahydro-2H-pyran-4-yl)imidazo[1,2-a]pyridin-6-yl)-6-(difluoromethyl)picolinamide] | 0.031 |
| CCOc1nc2nc(C3CCOCC3)cn2cc1NC(=O)c1cccc2c1OCC2 [Example 343, N-(7-ethoxy-2-(tetrahydro-2H-pyran-4-yl)imidazo[1,2-a]pyrimidin-6-yl)-2,3-dihydrobenzofuran-7-carboxamide] | 0.004 |
| COc1nc(NC(=O)c2cccc(C(F)F)n2)cn2cc(C3CCOC(C)(C)C3)nc12 (stereo not drawn) [Example 560, 6-(difluoromethyl)-N-(2-(2,2-dimethyltetrahydro-2H-pyran-4-yl)-8-methoxyimidazo[1,2-a]pyrazin-6-yl)picolinamide 2,2,2-trifluoroacetate] | 0.002 |
| COc1ncccc1C(=O)Nc1cn2cc(C34CCC(C)(C3)OC4)nc2c(OC)n1 (stereo not drawn) [Example 468, 2-methoxy-N-(8-methoxy-2-(1-methyl-2-oxabicyclo[2.2.1]heptan-4-yl)imidazo[1,2-a]pyrazin-6-yl)nicotinamide 2,2,2-trifluoroacetate] | 0.022 |
| O=C(Nc1cn2cc(C3CCOCC3)nc2cc1OCCC1CCOC1)c1cccc(C(F)F)n1 (stereo not drawn) [Example 195, 6-(difluoromethyl)-N-(2-(tetrahydro-2H-pyran-4-yl)-7-(2-(tetrahydrofuran-3-yl)ethoxy)imidazo[1,2-a]pyridin-6-yl)picolinamide] | 0.002 |
| CCOc1cc(NC(=O)c2cccc(C(F)F)n2)cn2cc(C3CCCOC3)nc12 (single isomer, unassigned) [Example 286, 6-(difluoromethyl)-N-(8-ethoxy-2-(tetrahydro-2H-pyran-3-yl)imidazo[1,2-a]pyridin-6-yl)picolinamide] | 0.005 |
| Cc1nn(C)cc1-c1cn2cc(NC(=O)c3cccc(C(F)F)n3)c(OC(C)C)cc2n1 [Example 263, 6-(difluoromethyl)-N-(2-(1,3-dimethyl-1H-pyrazol-4-yl)-7-isopropoxyimidazo[1,2-a]pyridin-6-yl)picolinamide] | 0.001 |
| COc1nc(NC(=O)c2cccc(C(F)F)n2)cn2cc([C@@]34CC[C@@](C)(C3)OC4)nc12 (single isomer, unassigned) [Example 277, 6-(Difluoromethyl)-N-(8-methoxy-2-((1R*,4S*)-1-methyl-2-oxabicyclo[2.2.1]heptan-4-yl)imidazo[1,2-a]pyrazin-6-yl)picolinamide] | 0.007 |
| COc1cc(NC(=O)c2csc(C3CC3)n2)cn2cc(C3CCOCC3)nc12 [Example 244, 2-cyclopropyl-N-(8-methoxy-2-(tetrahydro-2H-pyran-4-yl)imidazo[1,2-a]pyridin-6-yl)thiazole-4-carboxamide] | 0.028 |
| CC12CC(c3cn4cc(NC(=O)c5coc(C(F)F)n5)nc(OC5CCC5)c4n3)(CO1)C2 [Example 485, N-(8-cyclobutoxy-2-(1-methyl-2-oxabicyclo[2.1.1]hexan-4-yl)imidazo[1,2-a]pyrazin-6-yl)-2-(difluoromethyl)oxazole-4-carboxamide 2,2,2-trifluoroacetate] | 0.037 |
| COc1nc(NC(=O)c2coc(C(F)F)n2)cn2cc(C3CCOCC3)nc12 [Example 333, 2-(difluoromethyl)-N-(8-methoxy-2-(tetrahydro-2H-pyran-4-yl)imidazo[1,2-a]pyrazin-6-yl)oxazole-4-carboxamide] | 0.044 |
| CCOc1c(NC(=O)c2cccc(C(F)F)n2)cn2cc(C3CCOCC3)nc2c1Cl [Example 272, N-(8-chloro-7-ethoxy-2-(tetrahydro-2H-pyran-4-yl)imidazo[1,2-a]pyridin-6-yl)-6-(difluoromethyl)picolinamide] | 0.003 |
| CC(C)Oc1nc2nc(C34COC(C)(C3)C4)cn2cc1NC(=O)c1ccnc2ccnn12 [Example 495, N-(7-isopropoxy-2-(1-methyl-2-oxabicyclo[2.1.1]hexan-4-yl)imidazo[1,2-a]pyrimidin-6-yl)pyrazolo[1,5-a]pyrimidine-7-carboxamide] | 0.007 |
| CC(C)Oc1c(NC(=O)c2cccnc2OC(F)F)cn2cc(C34COC(C)(C3)C4)nc2c1F [Example 323, 2-(difluoromethoxy)-N-(8-fluoro-7-isopropoxy-2-(1-methyl-2-oxabicyclo[2.1.1]hexan-4-yl)imidazo[1,2-a]pyridin-6-yl)nicotinamide] | 0.073 |
| CCOc1nc(NC(=O)c2cccc(C(F)F)n2)cn2cc(C3CCOCC3)nc12 [Example 475, 6-(difluoromethyl)-N-(8-ethoxy-2-(tetrahydro-2H-pyran-4-yl)imidazo[1,2-a]pyrazin-6-yl)picolinamide 2,2,2-trifluoroacetate] | 0.008 |
| COc1nc(NC(=O)c2cccc(C(F)(F)F)n2)cn2cc(C34COC(C)(C3)C4)nc12 [Example 449, N-(8-methoxy-2-(1-methyl-2-oxabicyclo[2.1.1]hexan-4-yl)imidazo[1,2-a]pyrazin-6-yl)-6-(trifluoromethyl)picolinamide 2,2,2-trifluoroacetate] | 0.064 |
| COc1nc2nc(C3CC(OC)C3)cn2cc1NC(=O)c1cccc(C(F)F)n1 (stereo not drawn) [Example 564, 6-(difluoromethyl)-N-(7-methoxy-2-(3-methoxycyclobutyl)imidazo[1,2-a]pyrimidin-6-yl)picolinamide] | 0.032 |
| CC(C)Oc1cc2nc(C3CCOCC3)cn2cc1NC(=O)c1cccc2c1OCC2 [Example 379, N-(7-isopropoxy-2-(tetrahydro-2H-pyran-4-yl)imidazo[1,2-a]pyridin-6-yl)-2,3-dihydrobenzofuran-7-carboxamide] | 0.002 |
| COc1nc(NC(=O)c2cccc3ccnn23)cn2cc(C34CCC(C)(C3)OC4)nc12 (stereo not drawn) [Example 470, N-(8-methoxy-2-(1-methyl-2-oxabicyclo[2.2.1]heptan-4-yl)imidazo[1,2-a]pyrazin-6-yl)pyrazolo[1,5-a]pyridine-7-carboxamide 2,2,2-trifluoroacetate] | 0.006 |
| COCCCc1cn2cc(NC(=O)c3cccc(C(F)F)n3)cc(OC)c2n1 [Example 282, 6-(difluoromethyl)-N-(8-methoxy-2-(3-methoxypropyl)imidazo[1,2-a]pyridin-6-yl)picolinamide] | 0.007 |
| COCc1cc2nc(C3CCOCC3)cn2cc1NC(=O)c1cccc(C(F)F)n1 [Example 314, 6-(difluoromethyl)-N-(7-(methoxymethyl)-2-(tetrahydro-2H-pyran-4-yl)imidazo[1,2-a]pyridin-6-yl)picolinamide] | 0.013 |
| COc1nc(NC(=O)c2cccc(C(F)(F)F)n2)cn2cc(C3CCCOC3)nc12 (single isomer, unassigned) [Example 300, N-(8-methoxy-2-(tetrahydro-2H-pyran-3-yl)imidazo[1,2-a]pyrazin-6-yl)-6-(trifluoromethyl)picolinamide] | 0.005 |
| O=C(Nc1cn2cc(C3CCOCC3)nc2cc1OCC1(C(F)F)CCC1)c1cccc(C(F)F)n1 [Example 198, 6-(difluoromethyl)-N-(7-((1-(difluoromethyl)cyclobutyl)methoxy)-2-(tetrahydro-2H-pyran-4-yl)imidazo[1,2-a]pyridin-6-yl)picolinamide] | 0.001 |
| CC(C)Oc1nc2nc(C34COC(C)(C3)C4)cn2cc1NC(=O)c1cccc2ncnn12 [Example 348, N-(7-isopropoxy-2-(1-methyl-2-oxabicyclo[2.1.1]hexan-4-yl)imidazo[1,2-a]pyrimidin-6-yl)-[1,2,4]triazolo[1,5-a]pyridine-5-carboxamide] | 0.001 |
| CCOc1nc(NC(=O)c2coc(C)n2)cn2cc(C34COC(C)(C3)C4)nc12 [Example 473, N-(8-ethoxy-2-(1-methyl-2-oxabicyclo[2.1.1]hexan-4-yl)imidazo[1,2-a]pyrazin-6-yl)-2-methyloxazole-4-carboxamide] | 0.031 |
| COc1cc2nc(C34COC(C)(C3)C4)cn2cc1NC(=O)c1cccc(C(F)F)n1 [Example 515, 6-(difluoromethyl)-N-(7-methoxy-2-(1-methyl-2-oxabicyclo[2.1.1]hexan-4-yl)imidazo[1,2-a]pyridin-6-yl)picolinamide 2,2,2-trifluoroacetate] | 0.001 |
| COc1ncccc1C(=O)Nc1cn2cc(C3CCOCC3)nc2c(OC)n1 [Example 458, 2-methoxy-N-(8-methoxy-2-(tetrahydro-2H-pyran-4-yl)imidazo[1,2-a]pyrazin-6-yl)nicotinamide 2,2,2-trifluoroacetate] | 0.036 |
| CCOc1cc2nc(C3C4COCC43)cn2cc1NC(=O)c1coc(C2CC2)n1 (stereo not drawn) [Example 375, N-(2-(3-oxabicyclo[3.1.0]hexan-6-yl)-7-ethoxyimidazo[1,2-a]pyridin-6-yl)-2-cyclopropyloxazole-4-carboxamide] | 0.004 |
| CCOc1cc(NC(=O)c2cccc(C(F)(F)F)n2)cn2cc(C3CCCOC3)nc12 (single isomer, unassigned) [Example 287, N-(8-ethoxy-2-(tetrahydro-2H-pyran-3-yl)imidazo[1,2-a]pyridin-6-yl)-6-(trifluoromethyl)picolinamide] | 0.006 |

Reference: patent US20220089592A1, “IMIDAZO[1,2-A]PYRIDINYL DERIVATIVES AS IRAK4 INHIBITORS” (priority 2019, published 2022)
